Assay results reported in ChEMBL document CHEMBL2034898, “Inhibition of homologous recombination in human cells by targeting RAD51 recombinase” (J Med Chem, 2012).
Changes are numbered by the printed parent chain. Values belong to the molecule of their own block, whether it stands above or below them. Activity calls are given as the source filed them. The rule behind the calls is not given here.

Legend:
[1] = Lipophilicity, log P of the compound; type: physicochemical; conditions: octanol/water
[2] = target: T1, DNA repair protein RAD51 homolog 1 (Homo sapiens) (UniProt Q06609); test: Inhibition of human RAD51-mediated DNA strand exchange at 5 to 20 uM using pBSK (+) gapped and linear dsDNA substrates by joint molecule formation assay
T1 sequence (whole entry): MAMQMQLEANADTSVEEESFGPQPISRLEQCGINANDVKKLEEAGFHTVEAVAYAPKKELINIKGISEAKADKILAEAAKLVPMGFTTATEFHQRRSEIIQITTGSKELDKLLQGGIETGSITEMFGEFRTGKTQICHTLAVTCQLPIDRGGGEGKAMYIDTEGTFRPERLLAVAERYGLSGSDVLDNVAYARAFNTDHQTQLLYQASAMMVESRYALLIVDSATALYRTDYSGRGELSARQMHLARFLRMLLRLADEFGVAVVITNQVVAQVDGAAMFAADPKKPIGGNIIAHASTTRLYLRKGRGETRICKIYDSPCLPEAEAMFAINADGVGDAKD

[3] = target: T1, DNA repair protein RAD51 homolog 1 (Homo sapiens); test: Inhibition of human RAD51 in HEK-GFP cells assessed as reduction in double-strand breaks-induced homologous recombination at 5 to 20 uM by chromosomally integrated DR-GFP reporter gene assay; type: cell-based
[4] = target: T2, Protein RecA (Escherichia coli K-12) (UniProt P0A7G6); test: Inhibition of Escherichia coli RecA-mediated DNA strand exchange at 10 to 100 microM using pBSK (+) gapped and linear dsDNA substrates by joint molecule formation assay
T2 sequence (whole entry): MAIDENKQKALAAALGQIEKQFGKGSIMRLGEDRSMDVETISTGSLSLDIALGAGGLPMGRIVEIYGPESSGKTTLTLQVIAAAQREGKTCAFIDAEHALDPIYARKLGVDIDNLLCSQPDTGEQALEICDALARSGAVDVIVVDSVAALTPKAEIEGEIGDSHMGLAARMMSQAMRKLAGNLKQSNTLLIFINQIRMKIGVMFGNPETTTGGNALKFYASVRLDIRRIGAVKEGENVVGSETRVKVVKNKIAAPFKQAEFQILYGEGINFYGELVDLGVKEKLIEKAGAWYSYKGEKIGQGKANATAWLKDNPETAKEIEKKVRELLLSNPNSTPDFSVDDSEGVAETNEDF

[5] = target: T2, Protein RecA (Escherichia coli K-12); test: Inhibition of Escherichia coli RecA-mediated DNA branch migration at 10 to 100 microM using [32P]-labeled 5'-joint molecules after 8 hrs by branch migration assay
[6] = target: T2, Protein RecA (Escherichia coli K-12); test: Binding affinity to Escherichia coli RecA at 50 microM by SPR method
HEK-GFP [7] = test: Effect on GFP expression in HEK-GFP cells transfected with pMX-GFP plasmid by Western blotting; type: functional, cell-based; conditions: Homo sapiens
HEK-GFP [8] = test: Effect on I-SceI expression in HEK-GFP cells by Western blotting; type: functional, cell-based; conditions: Homo sapiens
HEK-GFP [9] = test: Effect on RAD51 expression in HEK-GFP cells by Western blotting; type: functional, cell-based; conditions: Homo sapiens
MEF [10] = test: Toxicity in MEF cells assessed as cell viability at 5 uM by incubated for 1 hr by clonogenic survival assay; type: cell-based; conditions: mouse
MEF [11] = test: Toxicity in Tp53-/- MEF cells assessed as cell viability at 5 uM by incubated for 1 hr by clonogenic survival assay; type: cell-based; conditions: mouse
[12] = target: T1, DNA repair protein RAD51 homolog 1 (Homo sapiens); conditions: 20 uM
Description: Inhibition of human RAD51-ssDNA filament formation at 20 uM added to free RAD51 prior to filament formation by D-loop formation assay

[13] = target: T1, DNA repair protein RAD51 homolog 1 (Homo sapiens); conditions: 25 uM
Description: Inhibition of ssDNA binding to human RAD51 assessed as reduction in RAD51-90-mer ssDNA complex formation at 25 uM by EMSA method

[14] = target: T1, DNA repair protein RAD51 homolog 1 (Homo sapiens); conditions: 25 uM; remark: listed apart in the source
Description: Inhibition of human RAD51 ATPase activity at 25 uM by ATP hydrolysis assay

[15] = target: T1, DNA repair protein RAD51 homolog 1 (Homo sapiens); conditions: 200 uM
Description: Inhibition of human RAD51 oligomerization at 200 uM by gel filtration method

[16] = target: T1, DNA repair protein RAD51 homolog 1 (Homo sapiens); conditions: 20 uM; remark: listed apart in the source
Description: Inhibition of dsDNA binding to human RAD51-ssDNA filament assessed as reduction in coaggregation formation at 20 uM in presence of 50 mM NaCl by dsDNA coaggregation assay

[17] = target: T1, DNA repair protein RAD51 homolog 1 (Homo sapiens); conditions: HEK293, 25 uM
Description: Inhibition of DNA binding to human RAD51 in irradiated HEK cells assessed as reduction in RAD51 foci formation at 25 uM by fluorescence microscopy relative to untreated control

[18] = target: T3, DNA repair protein RAD51 homolog 1 (Mus musculus) (UniProt Q08297); conditions: MEF, 5 uM
T3 sequence (whole entry): T1 sequence (whole entry) with N10S, F46Y, A76T, A194G
Description: Inhibition of RAD51 in Tp53-/- MEF cells assessed as potentiation of 32 uM cisplatin-induced cytotoxicity at 5 uM incubated for 1 hr by clonogenic survival assay relative to untreated control

[19] = target: T3, DNA repair protein RAD51 homolog 1 (Mus musculus); conditions: MEF, 5 uM; remark: listed apart in the source
Description: Inhibition of RAD51 in Tp53-/- MEF cells assessed as potentiation of 1 uM MMC-induced cytotoxicity at 5 uM incubated for 1 hr by clonogenic survival assay relative to untreated control

[20] = target: T1, DNA repair protein RAD51 homolog 1 (Homo sapiens); conditions: HEK293, 5 uM
Description: Inhibition of RAD51 in HEK cells assessed as potentiation of cisplatin-induced cytotoxicity at 5 uM in presence of RAD51 siRNA transfected 40 hrs before compound and cisplatin addition by clonogenic survival assay relative to untreated control

[21] = target: T1, DNA repair protein RAD51 homolog 1 (Homo sapiens); conditions: HEK293, 5 uM; remark: listed apart in the source
Description: Inhibition of RAD51 in HEK cells assessed as potentiation of cisplatin-induced cytotoxicity at 5 uM in presence of RAD51 siRNA transfected 40 hrs before compound and cisplatin exposure for 10 to 12 hrs by clonogenic survival assay relative to untreated control

[22] = target: T1, DNA repair protein RAD51 homolog 1 (Homo sapiens); conditions: HEK293, 5 uM; remark: listed apart in the source
Description: Inhibition of RAD51 in HEK cells assessed as potentiation of cisplatin-induced cytotoxicity at 5 uM in presence of RAD51 siRNA transfected 40 hrs before compound and cisplatin exposure for 16 hrs by clonogenic survival assay relative to untreated control

[23] = target: T3, DNA repair protein RAD51 homolog 1 (Mus musculus); conditions: MEF, 5 uM; remark: listed apart in the source
Description: Inhibition of RAD51 in MEF cells assessed as potentiation of MMC-induced cytotoxicity at 5 uM incubated for 1 hr in presence of 0.01 uM PARP1 inhibitor AZD2281 by clonogenic survival assay relative to untreated control

[24] = target: T3, DNA repair protein RAD51 homolog 1 (Mus musculus); conditions: MEF, 5 uM; remark: listed apart in the source
Description: Inhibition of RAD51 in MEF cells assessed as potentiation of MMC-induced cytotoxicity at 5 uM incubated for 1 hr by clonogenic survival assay relative to untreated control

logP [1]: 3.7 | inhibition [2]: inactive | inhibition [3]: inactive
Structure (SMILES): Cc1cc2nc3c(nc2cc1C)[C@@]1(C(=O)O)CCC3(C)C1(C)C

Structure (SMILES): O=c1c2ccccc2nc(/C=C/c2cccnc2)n1Cc1ccccc1
inhibition [4]: inactive | inhibition [5]: inactive | Activity [6]: inactive | Activity (HEK-GFP [7]): inactive | Activity (HEK-GFP [8]): inactive | Activity (HEK-GFP [9]): inactive | logP [1]: 3.7 | Activity (MEF [10]): Non-toxic | Activity (MEF [11]): Non-toxic | inhibition [12]: Active | inhibition [13]: Active | inhibition [14]: Active | inhibition [15]: inactive | inhibition [16]: Active | inhibition [17]: Active | inhibition [18]: Active | inhibition [19]: Active | inhibition [20]: Active | inhibition [21]: Active | inhibition [22]: Active | inhibition [23]: Active | inhibition [24]: inactive
